Assay results from patent US11540518B2, “Fungicidal oxadiazoles” (FMC Corporation, priority 2017, dated 2023).

Experiments:
Type in all cases: in vivo
Zymoseptoria tritici = test: Test B: wheat leaf blotch control on wheat seedlings; conditions: sprayed to run-off on wheat seedlings, inoculated the following day, 100 = 100% disease control, 0 = no control
Description: (§1) General protocol for preparing test suspensions for Tests A-C: the test compounds were first dissolved in acetone in an amount equal to 3% of the final volume and then suspended at the desired concentration (in ppm) in acetone and purified water (50/50 mix by volume) containing 250 ppm of the surfactant PEG400 (polyhydric alcohol esters). The resulting test suspensions were then used in Tests A-C. The test solution was sprayed to the point of run-off on wheat seedlings. The following day the seedlings were inoculated with a spore suspension of Zymoseptoria tritici (the causal agent of wheat leaf blotch) and incubated in a saturated atmosphere at 24° C. for 48 h, and then moved to a growth chamber at 20° C. for 17 days, after which time disease ratings were made. Results for Tests A-C are given in Table A. In the Table, a rating of 100 indicates 100% disease control and a rating of 0 indicates no disease control (relative to the controls). A dash (-) indicates the compound was not tested.

Phakopsora pachyrhizi = test: Test A: Asian soybean rust control on soybean seedlings; conditions: sprayed to run-off on soybean seedlings, inoculated the following day, 100 = 100% disease control, 0 = no control
Description: General protocol for preparing test suspensions for Tests A-C: the test compounds were first dissolved in acetone in an amount equal to 3% of the final volume and then suspended at the desired concentration (in ppm) in acetone and purified water (50/50 mix by volume) containing 250 ppm of the surfactant PEG400 (polyhydric alcohol esters). The resulting test suspensions were then used in Tests A-C.
The test solution was sprayed to the point of run-off on soybean seedlings. The following day the seedlings were inoculated with a spore suspension of Phakopsora pachyrhizi (the causal agent of Asian soybean rust) and incubated in a saturated atmosphere at 22° C. for 24 h, and then moved to a growth chamber at 22° C. for 8 days, after which time visual disease ratings were made.
Results for Tests A-C are given in Table A. In the Table, a rating of 100 indicates 100% disease control and a rating of 0 indicates no disease control (relative to the controls). A dash (-) indicates the compound was not tested.

[1] = test system: Puccinia recondita f. sp. tritici; test: Test C: wheat leaf rust control on wheat seedlings; conditions: sprayed to run-off on wheat seedlings, inoculated the following day, 100 = 100% disease control, 0 = no control
Description: as §1, with “Puccinia recondita f. sp.” for “Zymoseptoria”, “rust)” for “blotch)”, “20°” for “24°”, “24” for “48”, “6” for “17”

[2] = 250 ppm (incl. values marked * = tested at 250 ppm)

## CCNC(=O)OCC(OC)c1ccc(-c2noc(C(F)(F)F)n2)cc1 (racemic) [Compound 5]
Zymoseptoria tritici; 260 ppm
  Test B disease control rating: 81%
Phakopsora pachyrhizi; 260 ppm
  Test A disease control rating: 100%
[1]; 260 ppm
  Test C disease control rating: 100%

## CCC(C)NC(=O)OCc1ccc(-c2noc(C(F)(F)F)n2)cc1 (racemic) [Compound 14]
Zymoseptoria tritici; [2]
  Test B disease control rating: 84%
Phakopsora pachyrhizi; 250 ppm
  Test A disease control rating: 100%
[1]; 250 ppm
  Test C disease control rating: 100%

## O=C(Nc1ccccc1)OCc1ccc(-c2noc(C(F)(F)F)n2)cc1 [Compound 1]
Zymoseptoria tritici; 270 ppm
  Test B disease control rating: 79%
Phakopsora pachyrhizi; 270 ppm
  Test A disease control rating: 100%
[1]; 270 ppm
  Test C disease control rating: 100%

## CCNC(=O)OCc1ccc(-c2noc(C(F)(F)F)n2)cc1 [Compound 2]
Zymoseptoria tritici; 260 ppm
  Test B disease control rating: 99%
Phakopsora pachyrhizi; 260 ppm
  Test A disease control rating: 100%
[1]; 260 ppm
  Test C disease control rating: 100%

## CC(C)NC(=O)OCc1ccc(-c2noc(C(F)(F)F)n2)cc1 [Compound 3]
Zymoseptoria tritici; [2]
  Test B disease control rating: 73%
Phakopsora pachyrhizi; 250 ppm
  Test A disease control rating: 100%
[1]; 250 ppm
  Test C disease control rating: 100%

## CCOC(=O)CNC(=O)OCc1ccc(-c2noc(C(F)(F)F)n2)cc1 [Compound 4]
Zymoseptoria tritici; 260 ppm
  Test B disease control rating: 46%
Phakopsora pachyrhizi; 260 ppm
  Test A disease control rating: 100%
[1]; 260 ppm
  Test C disease control rating: 100%

## CN(C)C(=O)OCc1ccc(-c2noc(C(F)(F)F)n2)cc1 [Compound 6]
Zymoseptoria tritici; 260 ppm
  Test B disease control rating: 76%
Phakopsora pachyrhizi; 260 ppm
  Test A disease control rating: 100%
[1]; 260 ppm
  Test C disease control rating: 100%

## O=C(NCCCl)OCc1ccc(-c2noc(C(F)(F)F)n2)cc1 [Compound 7]
Zymoseptoria tritici; 260 ppm
  Test B disease control rating: 98%
Phakopsora pachyrhizi; 260 ppm
  Test A disease control rating: 100%
[1]; 260 ppm
  Test C disease control rating: 100%

## O=C(OCc1ccc(-c2noc(C(F)(F)F)n2)cc1)n1ccnc1 [Compound 8, 2-[4-[5-(trifluoromethyl)-1,2,4-oxadiazol-3-yl]phenyl]methyl-1H-imidazole-1-carboxylate]
Zymoseptoria tritici; 255 ppm
  Test B disease control rating: 13%
Phakopsora pachyrhizi; 255 ppm
  Test A disease control rating: 100%
[1]; 255 ppm
  Test C disease control rating: 100%

## CNC(=O)OCc1ccc(-c2noc(C(F)(F)F)n2)cc1 [Compound 9]
Zymoseptoria tritici; 260 ppm
  Test B disease control rating: 94%
Phakopsora pachyrhizi; 260 ppm
  Test A disease control rating: 100%
[1]; 260 ppm
  Test C disease control rating: 100%

## CCCNC(=O)OCc1ccc(-c2noc(C(F)(F)F)n2)cc1 [Compound 10]
Zymoseptoria tritici; [2]
  Test B disease control rating: 97%
Phakopsora pachyrhizi; 250 ppm
  Test A disease control rating: 100%
[1]; 250 ppm
  Test C disease control rating: 100%

## COCCNC(=O)OCc1ccc(-c2noc(C(F)(F)F)n2)cc1 [Compound 11]
Zymoseptoria tritici; [2]
  Test B disease control rating: 96%
Phakopsora pachyrhizi; 250 ppm
  Test A disease control rating: 100%
[1]; 250 ppm
  Test C disease control rating: 100%

## C#CCNC(=O)OCc1ccc(-c2noc(C(F)(F)F)n2)cc1 [Compound 12]
Zymoseptoria tritici; 265 ppm
  Test B disease control rating: 100%
Phakopsora pachyrhizi; 265 ppm
  Test A disease control rating: 100%
[1]; 265 ppm
  Test C disease control rating: 100%

## CCOC(=O)c1ccc(CNC(=O)OCCCc2ccc(-c3noc(C(F)(F)F)n3)cc2)cc1 [Compound 69]
Phakopsora pachyrhizi; 50 ppm
  Test A disease control rating: 100%
[1]; 50 ppm
  Test C disease control rating: 0%

## CC(OC(=O)n1ccnc1)c1ccc(-c2noc(C(F)(F)F)n2)cc1 (stereo not drawn) [Compound 70]
Phakopsora pachyrhizi; 10 ppm
  Test A disease control rating: 99%
[1]; 10 ppm
  Test C disease control rating: 68%

## CNC(=O)OC(C)c1ccc(-c2noc(C(F)(F)F)n2)cc1 (stereo not drawn) [Compound 71]
Phakopsora pachyrhizi; 10 ppm
  Test A disease control rating: 100%
[1]; 10 ppm
  Test C disease control rating: 83%

## CCCNC(=O)OC(C)c1ccc(-c2noc(C(F)(F)F)n2)cc1 (stereo not drawn) [Compound 73]
Phakopsora pachyrhizi; 10 ppm
  Test A disease control rating: 100%
[1]; 10 ppm
  Test C disease control rating: 68%

## CCCNC(=O)OC(C)c1ccc(-c2noc(C(F)(F)F)n2)s1 (stereo not drawn) [Compound 74]
Phakopsora pachyrhizi; 10 ppm
  Test A disease control rating: 100%
[1]; 10 ppm
  Test C disease control rating: 98%

## NC(=O)OCc1ccc(-c2noc(C(F)(F)F)n2)o1 [Compound 80]
Phakopsora pachyrhizi; 10 ppm
  Test A disease control rating: 0%
[1]; 10 ppm
  Test C disease control rating: 0%

## C#CCNC(=O)OCc1ccc(-c2noc(C(F)(F)F)n2)o1 [Compound 81]
Phakopsora pachyrhizi; 10 ppm
  Test A disease control rating: 0%
[1]; 10 ppm
  Test C disease control rating: 45%

## O=C(OCc1ccc(-c2noc(C(F)(F)F)n2)o1)n1ccnc1 [Compound 82]
Phakopsora pachyrhizi; Phakopsora pachyrhizi, 216 h, 50 ppm, read-out: Test A disease control rating
  pest or weed control at 50 ppm: 89%
[1]; Puccinia recondita, 168 h, 50 ppm, read-out: Test C disease control rating
  pest or weed control at 50 ppm: 0%

## COc1ccc(C(OC(=O)n2ccnc2)c2ccc(-c3noc(C(F)(F)F)n3)cc2)cc1 (stereo not drawn) [Compound 83]
Phakopsora pachyrhizi; 50 ppm
  Test A disease control rating: 100%
[1]; 50 ppm
  Test C disease control rating: 100%

## CC(OC(N)=O)c1ccc(-c2noc(C(F)(F)F)n2)cc1 (stereo not drawn) [Compound 84]
Phakopsora pachyrhizi; 10 ppm
  Test A disease control rating: 100%
[1]; 10 ppm
  Test C disease control rating: 100%

## CC(C)(C)OC(=O)NN=Cc1ccc(-c2noc(C(F)(F)F)n2)cc1 [Compound 106]
Phakopsora pachyrhizi; 10 ppm
  Test A disease control rating: 97%
[1]; 10 ppm
  Test C disease control rating: 68%

## CCOC(=O)NN=Cc1ccc(-c2noc(C(F)(F)F)n2)cc1 [Compound 107]
Phakopsora pachyrhizi; 10 ppm
  Test A disease control rating: 100%
[1]; 10 ppm
  Test C disease control rating: 99%

## COC(=O)NN=C(C)c1ccc(-c2noc(C(F)(F)F)n2)cc1 [Compound 108]
Phakopsora pachyrhizi; 10 ppm
  Test A disease control rating: 92%
[1]; 10 ppm
  Test C disease control rating: 89%

## CN(N=Cc1ccc(-c2noc(C(F)(F)F)n2)cc1)C(=O)OC(C)(C)C [Compound 109]
Phakopsora pachyrhizi; 50 ppm
  Test A disease control rating: 100%
[1]; 50 ppm
  Test C disease control rating: 95%

## CCNC(=O)OC(c1ccccc1)c1ccc(-c2noc(C(F)(F)F)n2)cc1 (stereo not drawn) [Compound 110]
Phakopsora pachyrhizi; 250 ppm
  Test A disease control rating: 100%
[1]; 250 ppm
  Test C disease control rating: 100%

## O=C(OC(c1ccccc1)c1ccc(-c2noc(C(F)(F)F)n2)cc1)n1ccnc1 (stereo not drawn) [Compound 111]
Phakopsora pachyrhizi; 250 ppm
  Test A disease control rating: 100%
[1]; 250 ppm
  Test C disease control rating: 100%

## NC(=O)OC(c1ccccc1)c1ccc(-c2noc(C(F)(F)F)n2)cc1 (stereo not drawn) [Compound 117]
Phakopsora pachyrhizi; 250 ppm
  Test A disease control rating: 100%
[1]; 250 ppm
  Test C disease control rating: 100%

## C#CCNC(=O)OC(c1ccccc1)c1ccc(-c2noc(C(F)(F)F)n2)cc1 (stereo not drawn) [Compound 118]
Phakopsora pachyrhizi; 250 ppm
  Test A disease control rating: 100%
[1]; 250 ppm
  Test C disease control rating: 100%

## COC(=O)c1ccc(CNC(=O)OC(c2ccccc2)c2ccc(-c3noc(C(F)(F)F)n3)cc2)cc1 (stereo not drawn) [Compound 119]
Phakopsora pachyrhizi; 250 ppm
  Test A disease control rating: 100%
[1]; 250 ppm
  Test C disease control rating: 74%

## C#CCCNC(=O)OC(c1ccccc1)c1ccc(-c2noc(C(F)(F)F)n2)cc1 (stereo not drawn) [Compound 120]
Phakopsora pachyrhizi; 250 ppm
  Test A disease control rating: 100%
[1]; 250 ppm
  Test C disease control rating: 100%

## CN(C)C(=O)OC(c1ccccc1)c1ccc(-c2noc(C(F)(F)F)n2)cc1 (stereo not drawn) [Compound 121]
Phakopsora pachyrhizi; 250 ppm
  Test A disease control rating: 100%
[1]; 250 ppm
  Test C disease control rating: 99%

## COCCNC(=O)OC(c1ccccc1)c1ccc(-c2noc(C(F)(F)F)n2)cc1 (stereo not drawn) [Compound 122]
Phakopsora pachyrhizi; 10 ppm
  Test A disease control rating: 100%
[1]; 10 ppm
  Test C disease control rating: 89%

## CONC(=O)OCc1ccc(-c2noc(C(F)(F)F)n2)cc1 [Compound 136]
Phakopsora pachyrhizi; 10 ppm
  Test A disease control rating: 79%
[1]; 10 ppm
  Test C disease control rating: 0%

## Cc1ccccc1C(OC(=O)n1ccnc1)c1ccc(-c2noc(C(F)(F)F)n2)cc1 (stereo not drawn) [Compound 142]
Phakopsora pachyrhizi; 10 ppm
  Test A disease control rating: 98%
[1]; 10 ppm
  Test C disease control rating: 0%
